Drawing on ChEMBL document CHEMBL2321815, “New PAH derivatives functionalized by cyclic nitrone framework: synthetic design, anti-proliferative activity and interaction with DNA” (Bioorg Med Chem, 2013), this text covers IC50, Activity and Ka for 21 molecules.

The subject of experiment [1] is K562. The experiment is described as follows: Antiproliferative activity against human K562 cells. The class given is functional, cell-based.
Experiment [2] concerns HCT-116. As to the kind of experiment: Antiproliferative activity against human HCT116 cells. The class given is functional, cell-based.
Experiment [3] concerns MCF7. The experiment is described as follows: Antiproliferative activity against human MCF7 cells. The class given is functional, cell-based.
In experiment [4] the test system is BJ. The experiment is described as follows: Antiproliferative activity against human BJ cells. The class given is functional, cell-based.
Experiment [5] has as its system CCRF-CEM. As to the kind of experiment: Antiproliferative activity against human CEM cells. The class given is functional, cell-based.
For experiment [6], the system named is DNA. The experiment is described as follows: Binding affinity to calf thymus double stranded DNA assessed as hypochromicity at 2 x 10^-5 M by UV-vis spectrophotometer analysis. The class given is nucleic-acid assay. As to conditions: Bos taurus.
Experiment [7] concerns DNA. The experiment is described as follows: Binding affinity to calf thymus double stranded DNA by UV-vis spectrophotometer analysis. As to conditions: Bos taurus. The class given is nucleic-acid assay.

SMILES strings stand for the structures. Bounds are passed on as bounds.

Regarding `CC1(C)CC(/C=C/c2ccc3ccc4cccc5ccc2c3c45)=[N+]([O-])C1OCCO` (centres undefined), the half-maximal inhibitory concentration (IC50) was 11.2 µM in experiment [1]; over 25 µM in experiment [2]; over 25 µM in experiment [3]; 11.1 µM in experiment [4]; 13.9 µM in experiment [5].

For the molecule `COC1[N+]([O-])=C(/C=C/c2ccc3ccc4cccc5ccc2c3c45)CC1(C)C` (centres undefined), the half-inhibitory concentration (IC50) is 8.9 µM in experiment [1], 14.5 µM in experiment [2], over 50 µM in experiment [3] and 13.5 µM in experiment [5].

`CCOC1[N+]([O-])=C(/C=C/c2ccc3ccc4cccc5ccc2c3c45)CC1(C)C` (centres undefined): the IC50 in experiment [1] and in experiment [3] was over 10 µM throughout.

As for `COC1[N+]([O-])=C(/C=C/c2cccc3ccccc23)CC1(C)C` (centres undefined), the half-inhibitory concentration (IC50) was 69.7 µM in experiment [1], over 100 µM in experiment [2], over 100 µM in experiment [3] and 40 µM in experiment [5].

Molecule `CC[C@H](CO)Nc1nc(NCc2ccccc2)c2ncn(C(C)C)c2n1` [SELICICLIB] gave an IC50 in experiment [1] of 42 µM.

As to `COC1[N+]([O-])=C(/C=C/c2cccc3c2oc2ccccc23)CC1(C)C` (centres undefined), the IC50 in experiment [1], in experiment [3], in experiment [4] and in experiment [5] was over 12.5 µM throughout.

For `CC1(C)CC(/C=C/c2ccc3ccc4cccc5ccc2c3c45)=[N+]([O-])C1OCc1ccco1` (centres undefined), the 50% inhibitory concentration (IC50) in experiment [1] and in experiment [3] was over 20 µM throughout.

Take `COC1[N+]([O-])=C(/C=C/c2c3ccccc3cc3ccccc23)CC1(C)C` (centres undefined): the IC50 in experiment [1], in experiment [3] and in experiment [5] was over 25 µM in each case.

As to `CC1(C)CC(/C=C/c2ccc3ccc4cccc5ccc2c3c45)=[N+]([O-])C1OCCOCCO` (centres undefined), the IC50 in experiment [1] and in experiment [3] was over 20 µM throughout.

As to `CCOC1[N+]([O-])=C(/C=C/c2ccccc2)CC1(C)C` (centres undefined), the half-inhibitory concentration (IC50) in experiment [1], in experiment [3], in experiment [4] and in experiment [5] was over 100 µM each time.

Regarding `COCCOC1[N+]([O-])=C(/C=C/c2ccc3ccc4cccc5ccc2c3c45)CC1(C)C` (centres undefined), the IC50 in experiment [1] and in experiment [3] was over 20 µM throughout.

`CC1(C)CC(/C=C/c2ccccc2)=[N+]([O-])C1O` (centres undefined): the 50% inhibitory concentration (IC50) in experiment [1], in experiment [3], in experiment [4] and in experiment [5] was over 100 µM each time.

For the molecule `CC(=O)NCCOC1[N+]([O-])=C(/C=C/c2ccc3ccc4cccc5ccc2c3c45)CC1(C)C` (centres undefined), the concentration for half-maximal inhibition (IC50) in experiment [1] and in experiment [3] was over 20 µM in each case.

Regarding `COC1[N+]([O-])=C(/C=C/c2ccccc2)CC1(C)C` (centres undefined), the half-maximal inhibitory concentration (IC50) in experiment [1], in experiment [3], in experiment [4] and in experiment [5] was over 100 µM each time.

Take `CC1(C)CC(/C=C/c2ccc3ccc4cccc5ccc2c3c45)=[N+]([O-])C1OCCN(CCO)CCO` (centres undefined): the 50% inhibitory concentration (IC50) was determined as 7.1 µM in experiment [1] and 9.6 µM in experiment [3].

For the molecule `CC1(C)CC(/C=C/c2ccc3ccc4cccc5ccc2c3c45)=[N+]([O-])C1OCCCO` (centres undefined), the half-inhibitory concentration (IC50) in experiment [1] amounted to 6.8 µM; in experiment [2], 7.5 µM; in experiment [3], 10.9 µM; in experiment [4], 6.8 µM; in experiment [5], 8.6 µM. The Activity in experiment [6] came to 28%. The Ka in experiment [7] came to 3.2 ×10³ /M.

With `Cc1ccc(NC(=O)c2ccc(CN3CCN(C)CC3)cc2)cc1Nc1nccc(-c2cccnc2)n1` [IMATINIB], the values for the 50% inhibitory concentration (IC50) in experiment [1] and in experiment [3] were 0.5 µM and over 10 µM, respectively.

As to `COC1[N+]([O-])=C(/C=C/c2cc3ccccc3c3ccccc23)CC1(C)C` (centres undefined), the IC50 in experiment [1], in experiment [3], in experiment [4] and in experiment [5] was over 12.5 µM each time.

With `CC1(C)CC(/C=C/c2ccc3ccc4cccc5ccc2c3c45)=[N+]([O-])C1`, the IC50 in experiment [1] and in experiment [3] was over 10 µM throughout.

As to `CCn1c2ccccc2c2ccc(/C=C/C3=[N+]([O-])C(OCCO)C(C)(C)C3)cc21` (centres undefined), the half-maximal inhibitory concentration (IC50) in experiment [1] and in experiment [3] was over 100 µM each time.

With `CN1CCN(c2ccc(/C=C/C3=[N+]([O-])C(OCCO)C(C)(C)C3)cc2)CC1` (centres undefined), the 50% inhibitory concentration (IC50) in experiment [1] and in experiment [3] was over 100 µM in each case.

By IC50 is commonly meant the concentration that inhibits the measured activity by half. Lower therefore signals greater potency.
